Patent US20240018140A1, “MODIFIED IMIDAZOPYRIDINES AS GLUCOSYLCERAMIDE SYNTHASE INHIBITORS” (Merck Sharp & Dohme LLC, priority 2020, published 2024)

target: glucosylceramide synthase (GCS) (Homo sapiens (Human), UniProt Q16739); experiment: UDP-Glo glucosylceramide synthase biochemical assay; conditions: endogenous GCS in Golgi preparations from human A375 malignant melanoma skin cells; C6 ceramide and UDP-glucose substrates; 20 h incubation; UDP detected by luminescence
Excerpt: UDP-Glo™ Glucosylceramide Synthase Biochemical Assay
A UDP-Glo™ glucosylceramide synthase biochemical assay was utilized to evaluate the effect of test compounds on the activity of endogenous levels of GCS enzyme contained within Golgi preparations isolated from human A375 malignant melanoma skin cells. The UDP-Glo™ glucosylceramide synthase assay uses UDP-Glucose as a nucleotide-glycosyl donor and ceramide as substrate acceptor molecules. In the reaction, glucosylceramide synthase (GCS) transfers glucose from UDP-Glucose to ceramide. Glucosylceramide and UDP are released as products.
Using Promega's UDP-Glo™ Glycosyltransferase assay kit (Promega Corporation, Madison, WI, USA (Promega)), GCS activity was indirectly measured by detecting the amount of UDP produced. An aliquot of GCS enzyme (1.5 μg crude golgi preparation, total protein) and titrated test compound were aliquoted to each well and incubated for 30 minutes at room temperature. […] An equivalent volume of substrate mixture was then added to each well. Following a 20 h incubation at room temperature to allow for GCS turnover of substrate, an equal volume of UDP detection reagent (Promega) was added to each well and incubated for an additional 75 minutes at room temperature to simultaneously convert the accumulated UDP product into ATP and generate light in a luciferase reaction. The generated light was detected using a luminometer. […] luminescence values (RLUs) were normalized to mean “min” and “max” effects, as determined on each plate. “Min” was defined as the mean of the values of the wells treated with vehicle (DMSO) and which represent 0% inhibition; “max” was defined as the mean of the values of the wells treated with a reference inhibitor and which represent the 100% effect. Values for % Emax and EC50 were determined by best-fitting the normalized data to a curve in Activity Base along a four-parameter logistic nonlinear regression (4PL) model (based on the Levenberg-Marquardt algorithm and defined by the equation below): […]
where: n is 4PMin (bottom of the curve); m is 4PMax (top of the curve); i is IP (inflection point of curve); and p is slope. See Levenberg, K., “A Method for the Solution of Certain Problems in Least Squares”, Quart. Appl. Math. 2, (1944), pp 164-168 and Marquardt, D., “An Algorithm for Least Squares Estimation on Nonlinear Parameters”, SIAM J. Appl. Math. 11, (1963) pp 431-441.

Chain of glucosylceramide synthase (GCS) (Q16739 whole entry): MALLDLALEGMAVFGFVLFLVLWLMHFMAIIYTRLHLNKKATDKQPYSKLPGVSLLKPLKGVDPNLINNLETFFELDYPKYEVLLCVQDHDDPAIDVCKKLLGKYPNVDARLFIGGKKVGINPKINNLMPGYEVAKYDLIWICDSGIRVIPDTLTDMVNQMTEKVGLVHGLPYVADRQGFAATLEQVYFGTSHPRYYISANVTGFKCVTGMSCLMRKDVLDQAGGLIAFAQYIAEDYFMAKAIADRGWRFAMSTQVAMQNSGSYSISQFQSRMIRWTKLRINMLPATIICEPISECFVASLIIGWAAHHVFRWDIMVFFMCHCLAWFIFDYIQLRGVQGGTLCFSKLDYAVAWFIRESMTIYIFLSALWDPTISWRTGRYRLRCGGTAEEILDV

Row | SMILES | EC50 [nM]
1 | O=C(N[C@H]1CC[C@H](O)CC1)c1cn2cc(C(F)(F)F)cc(-c3ccccc3OCC(F)(F)F)c2n1 [Compound 36, N-(trans-4-hydroxycyclohexyl)-8-(2-(2,2,2-trifluoroethoxy)phenyl)-6-(trifluoromethyl)imidazo[1,2-a]pyridine-2-carboxamide] | 2.1
2 | CC(C)(CO)NC(=O)c1cn2cc(C(F)(F)F)cc(-c3ccccc3OCC(F)(F)F)c2n1 [Compound 37, N-(1-hydroxy-2-methylpropan-2-yl)-8-(2-(2,2,2-trifluoroethoxy)phenyl)-6-(trifluoromethyl)imidazo[1,2-a]pyridine-2-carboxamide] | 4.5
3 | O=C(N[C@H]1C[C@@H](CO)C1)c1cn2cccc(-c3ccccc3OCC(F)(F)F)c2n1 [Compound 40] | 6.7
4 | O=C(N[C@H]1CCCOC1)c1cn2cc(C(F)(F)F)cc(-c3ccccc3OCC(F)(F)F)c2n1 [Compound 42, (S)-N-(tetrahydro-2H-pyran-3-yl)-8-(2-(2,2,2-trifluoroethoxy)phenyl)-6-(trifluoromethyl)imidazo[1,2-a]pyridine-2-carboxamide] | 2.5
5 | COc1cc(-c2ccccc2OCC(F)(F)F)c2nc(C(=O)NC(C)(C)C(F)(F)F)cn2c1 [Compound 43, 6-methoxy-N-(1,1,1-trifluoro-2-methylpropan-2-yl)-8-(2-(2,2,2-trifluoroethoxy)phenyl)imidazo[1,2-a]pyridine-2-carboxamide] | 2.1
6 | O=C(N[C@@H]1COC[C@@H]1F)c1cn2cc(Cl)cc(-c3ccccc3OCC(F)(F)F)c2n1 [Compound 45, 6-chloro-N-((3R,4R)-4-fluorotetrahydrofuran-3-yl)-8-(2-(2,2,2-trifluoroethoxy)phenyl)imidazo[1,2-a]pyridine-2-carboxamide] | 4.3
7 | O=C(N[C@H]1COC[C@@H]1F)c1cn2cc(Cl)cc(-c3ccccc3OCC(F)(F)F)c2n1 [Compound 46, 6-chloro-N-((3S,4R)-4-fluorotetrahydrofuran-3-yl)-8-(2-(2,2,2-trifluoroethoxy)phenyl)imidazo[1,2-a]pyridine-2-carboxamide] | 4

Further molecules by falling EC50, results first:

Row | EC50 [nM] | SMILES
8 | 18 | CN1CC2(C1)CN(C(=O)c1cn3cccc(-c4ccccc4OCC(F)(F)F)c3n1)CCO2 [Compound 49, (2-methyl-5-oxa-2,8-diazaspiro[3.5]nonan-8-yl)(8-(2-(2,2,2-trifluoroethoxy)phenyl)imidazo[1,2-a]pyridin-2-yl)methanone]
9 | 14 | N#Cc1cc(-c2ccccc2OCC(F)(F)F)c2nc(C(=O)N[C@H]3CC[C@H](O)CC3)cn2c1 [Compound 39, 6-cyano-N-(trans-4-hydroxycyclohexyl)-8-(2-(2,2,2-trifluoroethoxy)phenyl)imidazo[1,2-a]pyridine-2-carboxamide]
10 | 9.2 | O=C(NC12CC(CO)(C1)C2)c1cn2cccc(-c3ccccc3OCC(F)(F)F)c2n1 [Compound 47, N-(3-(hydroxymethyl)bicyclo[1.1.1]pentan-1-yl)-8-(2-(2,2,2-trifluoroethoxy)phenyl)imidazo[1,2-a]pyridine-2-carboxamide]
11 | 8.3 | CC(C)(NC(=O)c1cn2cc(C#N)cc(-c3ccccc3OCC(F)(F)F)c2n1)C(F)(F)F [Compound 44, 6-cyano-N-(1,1,1-trifluoro-2-methylpropan-2-yl)-8-(2-(2,2,2-trifluoroethoxy)phenyl)imidazo[1,2-a]pyridine-2-carboxamide]
12 | 4.5 | O=C(c1cn2cccc(-c3ccccc3OCC(F)(F)F)c2n1)N1CC2CC1(CF)C2 [Compound 48, (1-(fluoromethyl)-2-azabicyclo[2.1.1]hexan-2-yl)(8-(2-(2,2,2-trifluoroethoxy)phenyl)imidazo[1,2-a]pyridin-2-yl)methanone]
13 | 1.7 | CC(C)(NC(=O)c1cn2cc(F)cc(-c3ccccc3OCC(F)(F)F)c2n1)C(F)(F)F [Compound 41, 6-fluoro-N-(1,1,1-trifluoro-2-methylpropan-2-yl)-8-(2-(2,2,2-trifluoroethoxy)phenyl)imidazo[1,2-a]pyridine-2-carboxamide]
